Test results reported in ChEMBL document CHEMBL5465560, “Selectivity Literature for EUbOPEN Chemogenomic Library” (2024).
Blank lines part the entries; values can stand above or below the molecule they belong to.

Key:
[1] = biological target: Ribosomal protein S6 kinase alpha-5 (Homo sapiens) (UniProt O75582); assay: Selectivity interaction (Kinase panel (literature)) EUB0001199aCl RPS6KA5; conditions: at 1 µM
[2] = biological target: T1, Ephrin type-B receptor 3 (Homo sapiens) (UniProt P54753); assay: Selectivity interaction (Upstate Kinase Profiler service (Millipore)) EUB0000056c EPHB3; conditions: at 1 µM
T1 sequence (whole entry): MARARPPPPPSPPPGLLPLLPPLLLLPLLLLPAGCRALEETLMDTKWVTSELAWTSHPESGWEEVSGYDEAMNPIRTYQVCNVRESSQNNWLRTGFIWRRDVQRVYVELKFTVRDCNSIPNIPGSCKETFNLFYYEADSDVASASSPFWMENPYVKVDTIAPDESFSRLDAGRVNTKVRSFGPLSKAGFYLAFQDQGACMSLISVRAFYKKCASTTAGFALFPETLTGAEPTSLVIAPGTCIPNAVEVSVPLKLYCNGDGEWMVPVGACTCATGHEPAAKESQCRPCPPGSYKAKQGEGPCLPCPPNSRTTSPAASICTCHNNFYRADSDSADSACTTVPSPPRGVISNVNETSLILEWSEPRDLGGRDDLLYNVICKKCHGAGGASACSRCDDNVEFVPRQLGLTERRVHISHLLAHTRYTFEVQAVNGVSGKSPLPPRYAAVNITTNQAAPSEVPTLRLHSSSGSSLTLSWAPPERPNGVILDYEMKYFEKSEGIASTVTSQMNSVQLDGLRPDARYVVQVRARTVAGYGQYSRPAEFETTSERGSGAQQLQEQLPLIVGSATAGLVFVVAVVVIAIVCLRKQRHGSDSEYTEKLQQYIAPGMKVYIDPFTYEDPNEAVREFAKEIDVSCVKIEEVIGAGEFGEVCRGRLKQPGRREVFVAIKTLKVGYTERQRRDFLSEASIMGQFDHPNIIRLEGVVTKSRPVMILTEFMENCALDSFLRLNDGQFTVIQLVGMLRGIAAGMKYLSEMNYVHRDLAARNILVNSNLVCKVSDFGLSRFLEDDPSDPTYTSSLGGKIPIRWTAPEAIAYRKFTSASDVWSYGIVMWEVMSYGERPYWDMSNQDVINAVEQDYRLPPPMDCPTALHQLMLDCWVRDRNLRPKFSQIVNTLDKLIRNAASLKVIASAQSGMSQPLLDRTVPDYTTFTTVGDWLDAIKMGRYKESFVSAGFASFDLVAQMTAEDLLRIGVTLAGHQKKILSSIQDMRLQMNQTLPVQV

[3] = biological target: Bone morphogenetic protein receptor type-1B (Homo sapiens, UniProt O00238); assay: Selectivity interaction (KinomeScan (DiscoverX)) EUB0000595a BMPR1B; conditions: at 10 µM
[4] = biological target: Histone-lysine N-methyltransferase, H3 lysine-36 specific (Homo sapiens) (UniProt Q96L73); conditions: at 10 µM
[5] = biological target: Protein arginine N-methyltransferase 5 (Homo sapiens, UniProt O14744); assay: Selectivity interaction (Transferase panel (protein, RNA, and DNA methyltransferases. and EP300 (acetyltransferase))) EUB0000270b PRMT5
[6] = biological target: Mitogen-activated protein kinase 1 (Homo sapiens, UniProt P28482); assay: Selectivity interaction (KinomeScan (DiscoverX)) EUB0000092b MAPK1; conditions: at 10 µM
[7] = biological target: T2, NUAK family SNF1-like kinase 2 (Homo sapiens) (UniProt Q9H093); assay: Selectivity interaction (KinomeScan (DiscoverX)) EUB0000618a NUAK2; conditions: at 10 µM
T2 sequence (whole entry): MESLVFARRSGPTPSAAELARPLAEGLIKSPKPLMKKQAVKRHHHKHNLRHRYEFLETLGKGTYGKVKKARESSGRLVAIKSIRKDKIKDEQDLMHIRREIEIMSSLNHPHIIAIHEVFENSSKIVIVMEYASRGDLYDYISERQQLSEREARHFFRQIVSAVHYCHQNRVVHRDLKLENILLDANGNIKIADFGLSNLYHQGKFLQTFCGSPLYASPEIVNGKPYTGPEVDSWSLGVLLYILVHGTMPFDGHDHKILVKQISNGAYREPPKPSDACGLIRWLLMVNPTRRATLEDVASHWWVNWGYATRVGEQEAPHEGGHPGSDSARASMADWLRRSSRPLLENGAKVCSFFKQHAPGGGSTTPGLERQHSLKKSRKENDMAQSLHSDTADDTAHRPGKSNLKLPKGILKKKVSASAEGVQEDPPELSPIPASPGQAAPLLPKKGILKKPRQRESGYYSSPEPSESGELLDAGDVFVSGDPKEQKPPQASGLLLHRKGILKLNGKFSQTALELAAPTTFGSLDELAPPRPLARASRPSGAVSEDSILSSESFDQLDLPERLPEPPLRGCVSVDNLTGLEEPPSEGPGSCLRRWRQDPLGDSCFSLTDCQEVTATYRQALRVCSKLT

Sequence of Protein arginine N-methyltransferase 5 (O14744 whole entry): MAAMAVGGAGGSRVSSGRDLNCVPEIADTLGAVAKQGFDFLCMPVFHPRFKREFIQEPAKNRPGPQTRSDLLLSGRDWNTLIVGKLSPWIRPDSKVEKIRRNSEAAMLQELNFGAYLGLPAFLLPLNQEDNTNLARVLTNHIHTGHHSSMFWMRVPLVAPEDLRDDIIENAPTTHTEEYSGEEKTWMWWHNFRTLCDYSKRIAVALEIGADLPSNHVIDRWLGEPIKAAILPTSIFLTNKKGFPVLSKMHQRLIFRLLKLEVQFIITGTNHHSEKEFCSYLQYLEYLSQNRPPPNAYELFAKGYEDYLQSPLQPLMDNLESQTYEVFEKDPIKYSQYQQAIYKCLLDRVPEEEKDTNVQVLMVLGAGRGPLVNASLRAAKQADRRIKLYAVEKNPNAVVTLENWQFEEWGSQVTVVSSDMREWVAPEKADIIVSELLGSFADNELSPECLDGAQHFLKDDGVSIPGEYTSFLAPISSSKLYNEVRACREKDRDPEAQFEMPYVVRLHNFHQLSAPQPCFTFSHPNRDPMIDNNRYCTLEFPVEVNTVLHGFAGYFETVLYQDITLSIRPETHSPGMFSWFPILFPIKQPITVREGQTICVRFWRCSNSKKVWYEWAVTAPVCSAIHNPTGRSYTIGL
Sequence of Histone-lysine N-methyltransferase, H3 lysine-36 specific (Homo sapiens) (Q96L73 whole entry): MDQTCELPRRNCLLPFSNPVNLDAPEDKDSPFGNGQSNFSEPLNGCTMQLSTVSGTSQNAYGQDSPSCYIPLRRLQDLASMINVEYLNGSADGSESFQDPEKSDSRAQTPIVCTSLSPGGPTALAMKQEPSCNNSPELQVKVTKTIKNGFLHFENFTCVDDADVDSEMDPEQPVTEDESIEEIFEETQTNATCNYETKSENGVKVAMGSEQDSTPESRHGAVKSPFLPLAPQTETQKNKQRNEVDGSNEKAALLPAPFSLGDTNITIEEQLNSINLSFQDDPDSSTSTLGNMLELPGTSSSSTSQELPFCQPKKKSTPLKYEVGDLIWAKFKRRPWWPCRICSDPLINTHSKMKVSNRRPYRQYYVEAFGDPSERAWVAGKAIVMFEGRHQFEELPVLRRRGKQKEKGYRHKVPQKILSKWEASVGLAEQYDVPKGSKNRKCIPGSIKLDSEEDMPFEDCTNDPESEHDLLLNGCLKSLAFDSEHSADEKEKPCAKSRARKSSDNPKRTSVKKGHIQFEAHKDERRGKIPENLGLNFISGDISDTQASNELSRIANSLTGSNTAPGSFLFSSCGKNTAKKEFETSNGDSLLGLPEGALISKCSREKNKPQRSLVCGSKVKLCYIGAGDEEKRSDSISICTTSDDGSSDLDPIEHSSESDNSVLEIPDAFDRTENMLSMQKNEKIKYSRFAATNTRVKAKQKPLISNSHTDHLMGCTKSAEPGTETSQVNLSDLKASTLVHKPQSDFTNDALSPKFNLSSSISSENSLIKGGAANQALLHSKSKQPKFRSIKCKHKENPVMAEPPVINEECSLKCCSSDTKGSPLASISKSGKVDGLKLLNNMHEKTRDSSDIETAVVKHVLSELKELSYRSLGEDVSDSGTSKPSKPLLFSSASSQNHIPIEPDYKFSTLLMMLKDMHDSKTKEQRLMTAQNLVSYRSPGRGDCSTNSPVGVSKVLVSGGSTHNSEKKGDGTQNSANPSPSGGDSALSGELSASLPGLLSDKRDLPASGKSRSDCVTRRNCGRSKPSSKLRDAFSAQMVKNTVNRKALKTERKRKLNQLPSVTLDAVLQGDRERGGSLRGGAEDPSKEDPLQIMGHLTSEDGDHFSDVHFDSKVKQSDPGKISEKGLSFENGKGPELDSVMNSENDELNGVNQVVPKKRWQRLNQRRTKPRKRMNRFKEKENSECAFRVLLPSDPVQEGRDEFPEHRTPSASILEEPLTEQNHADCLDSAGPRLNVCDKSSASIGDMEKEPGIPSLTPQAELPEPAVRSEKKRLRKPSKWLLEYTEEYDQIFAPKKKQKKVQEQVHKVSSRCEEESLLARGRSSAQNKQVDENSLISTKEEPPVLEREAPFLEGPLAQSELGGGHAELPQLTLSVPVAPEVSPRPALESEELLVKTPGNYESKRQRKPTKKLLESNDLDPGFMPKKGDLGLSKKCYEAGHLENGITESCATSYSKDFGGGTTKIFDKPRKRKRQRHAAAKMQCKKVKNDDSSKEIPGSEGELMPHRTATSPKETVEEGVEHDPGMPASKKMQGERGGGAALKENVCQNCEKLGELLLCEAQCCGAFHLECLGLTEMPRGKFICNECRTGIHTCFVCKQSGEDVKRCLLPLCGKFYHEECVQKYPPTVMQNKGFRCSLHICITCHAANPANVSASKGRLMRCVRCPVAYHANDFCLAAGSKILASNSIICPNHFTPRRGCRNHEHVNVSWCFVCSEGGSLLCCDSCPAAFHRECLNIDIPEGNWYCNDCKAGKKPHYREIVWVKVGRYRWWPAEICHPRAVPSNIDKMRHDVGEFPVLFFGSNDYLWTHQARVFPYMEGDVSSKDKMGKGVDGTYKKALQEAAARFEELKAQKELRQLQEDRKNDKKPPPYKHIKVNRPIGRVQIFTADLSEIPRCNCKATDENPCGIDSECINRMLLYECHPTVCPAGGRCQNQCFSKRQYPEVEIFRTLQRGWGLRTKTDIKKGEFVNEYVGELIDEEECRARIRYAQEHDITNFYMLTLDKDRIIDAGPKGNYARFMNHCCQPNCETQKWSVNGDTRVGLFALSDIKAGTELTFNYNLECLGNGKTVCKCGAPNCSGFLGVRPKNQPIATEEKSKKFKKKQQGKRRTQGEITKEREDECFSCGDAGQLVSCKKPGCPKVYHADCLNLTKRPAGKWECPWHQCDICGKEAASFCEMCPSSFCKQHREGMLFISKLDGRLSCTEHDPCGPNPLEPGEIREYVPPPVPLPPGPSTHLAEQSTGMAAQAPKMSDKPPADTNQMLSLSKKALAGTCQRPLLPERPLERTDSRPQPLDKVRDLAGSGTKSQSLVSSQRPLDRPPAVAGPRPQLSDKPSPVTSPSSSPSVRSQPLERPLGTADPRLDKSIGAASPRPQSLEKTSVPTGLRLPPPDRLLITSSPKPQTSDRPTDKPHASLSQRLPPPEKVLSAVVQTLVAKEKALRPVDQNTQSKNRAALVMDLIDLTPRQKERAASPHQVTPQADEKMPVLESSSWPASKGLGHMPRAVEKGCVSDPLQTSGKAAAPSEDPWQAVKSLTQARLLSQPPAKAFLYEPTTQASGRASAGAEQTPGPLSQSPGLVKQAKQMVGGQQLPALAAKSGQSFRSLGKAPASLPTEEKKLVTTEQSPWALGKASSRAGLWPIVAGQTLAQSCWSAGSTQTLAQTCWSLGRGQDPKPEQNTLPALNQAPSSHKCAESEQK
Sequence of Ribosomal protein S6 kinase alpha-5 (Homo sapiens) (O75582 whole entry, looked up): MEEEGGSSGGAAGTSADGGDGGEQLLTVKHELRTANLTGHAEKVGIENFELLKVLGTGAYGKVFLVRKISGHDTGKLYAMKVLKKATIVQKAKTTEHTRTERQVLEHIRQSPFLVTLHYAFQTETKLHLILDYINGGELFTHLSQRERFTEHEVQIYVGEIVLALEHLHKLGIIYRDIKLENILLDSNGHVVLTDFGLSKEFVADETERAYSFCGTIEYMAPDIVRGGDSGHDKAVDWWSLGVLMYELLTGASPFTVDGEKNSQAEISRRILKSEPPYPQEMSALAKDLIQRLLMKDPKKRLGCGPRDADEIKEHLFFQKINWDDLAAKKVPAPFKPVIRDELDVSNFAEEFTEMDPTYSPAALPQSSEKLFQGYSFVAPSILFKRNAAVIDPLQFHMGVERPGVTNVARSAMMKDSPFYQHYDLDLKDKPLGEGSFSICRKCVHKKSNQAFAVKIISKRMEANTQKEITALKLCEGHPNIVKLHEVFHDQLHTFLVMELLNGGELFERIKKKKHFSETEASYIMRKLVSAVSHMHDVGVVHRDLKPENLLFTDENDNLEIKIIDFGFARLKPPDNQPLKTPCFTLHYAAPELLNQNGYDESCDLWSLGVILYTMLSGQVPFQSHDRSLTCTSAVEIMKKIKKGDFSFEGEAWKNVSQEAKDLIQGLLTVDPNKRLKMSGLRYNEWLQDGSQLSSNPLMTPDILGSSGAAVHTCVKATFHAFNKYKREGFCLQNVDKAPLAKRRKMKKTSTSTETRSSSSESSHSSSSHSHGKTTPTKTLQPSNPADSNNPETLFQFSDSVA
Sequence of Bone morphogenetic protein receptor type-1B (O00238 whole entry): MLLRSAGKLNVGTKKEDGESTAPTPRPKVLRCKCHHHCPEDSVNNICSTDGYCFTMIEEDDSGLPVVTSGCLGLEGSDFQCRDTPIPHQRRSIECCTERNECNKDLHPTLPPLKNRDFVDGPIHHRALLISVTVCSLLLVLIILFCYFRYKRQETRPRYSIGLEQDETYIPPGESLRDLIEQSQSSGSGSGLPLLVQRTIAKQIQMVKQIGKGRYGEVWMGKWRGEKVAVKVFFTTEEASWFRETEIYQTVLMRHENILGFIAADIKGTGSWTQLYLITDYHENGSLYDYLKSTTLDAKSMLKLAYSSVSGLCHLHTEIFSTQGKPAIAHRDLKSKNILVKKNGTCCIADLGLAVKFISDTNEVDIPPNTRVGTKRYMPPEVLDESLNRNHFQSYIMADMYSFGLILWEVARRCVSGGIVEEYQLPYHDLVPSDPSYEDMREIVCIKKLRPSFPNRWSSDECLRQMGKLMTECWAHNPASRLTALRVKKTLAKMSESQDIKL
Sequence of Mitogen-activated protein kinase 1 (P28482 whole entry): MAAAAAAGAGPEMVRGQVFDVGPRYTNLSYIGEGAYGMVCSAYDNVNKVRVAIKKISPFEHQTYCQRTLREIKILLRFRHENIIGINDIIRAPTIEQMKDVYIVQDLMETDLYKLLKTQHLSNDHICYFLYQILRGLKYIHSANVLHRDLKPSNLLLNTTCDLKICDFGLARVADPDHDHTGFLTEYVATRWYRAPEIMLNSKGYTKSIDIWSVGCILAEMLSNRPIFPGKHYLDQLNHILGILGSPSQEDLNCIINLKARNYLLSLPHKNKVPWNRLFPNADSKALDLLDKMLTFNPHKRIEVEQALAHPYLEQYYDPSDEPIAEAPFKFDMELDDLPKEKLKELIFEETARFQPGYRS

SMILES: CN1Cc2nccc(-c3cn(C)nc3-c3ccc(F)cc3)c2C1=O
% of inhibition [1]: 0%

SMILES: COCC(=O)NC/C=C/c1ccc2ncnc(Nc3ccc(Oc4ccc(C)nc4)c(C)c3)c2c1 [CP-724714]
% of control [3]: 17%

SMILES: CCC(=O)N1CCN(c2ccc(-n3c(=O)ccc4cnc5ccc(-c6cnc7ccccc7c6)cc5c43)cc2C(F)(F)F)CC1
% of control [6]: 100%

SMILES: O[C@H]1CC[C@H](Nc2ncc3nc(Nc4c(F)cc(F)cc4F)n([C@H]4CCOC4)c3n2)CC1
% of control [7]: 52%

Second part, the molecule after the results:

% of inhibition [2]: -22%
SMILES: Cc1ccc(-c2ccc3c(ccc4sc5c(c43)NC[C@@H](C)NC5=O)n2)cn1

% activity [4]: > 90%
SMILES: CNCCN1CCC(c2cc(CN(C)C(=O)c3cccc(Oc4ccccc4)c3)ccn2)CC1

% activity ([5]; at 1 µM): > 90%
% activity ([5]; at 10 µM): > 80%
SMILES: Cc1cc(CN)cc(C)c1-c1ncn(C)c1-c1cncn1C
